The results in this text go back to patent publication US7468368B2, “Piperazinylacylpiperidine derivatives, their preparation and therapeutic use thereof” (Sanofi Aventis, priority 2002, dated 2008).

Where a name gives a salt, the structure may show the parent alone.

A word on the melting point: it is the temperature, or range, at which the solid turns liquid. Consider `CC(C)N(C)CC1(c2cccc(C(F)(F)F)c2)CCN(C(=O)CN2CCN(c3cnccn3)CC2)CC1.Cl.Cl.Cl`, for which the melting point lay in the range of 185 to 200 °C.

`COc1cccc(C2(CN)CCN(C(=O)CN3CCN(c4cnccn4)CC3)CC2)c1.O=C(O)C(=O)O.O=C(O)C(=O)O` yielded a melting point of 120 °C.

`NCC1(c2cccc(C(F)(F)F)c2)CCN(C(=O)CN2CCN(c3cnccn3)CC2)CC1` [Compound No. 4, 1-[4-(Aminomethyl)-4-[3-(trifluoromethyl)phenyl]-1-piperidyl]-2-[4-(2-pyrazinyl)-1-piperazinyl]-1-ethanone] displayed a melting point of 152 to 153 °C.

In turn, `NCC1(c2cccc(Cl)c2)CCN(C(=O)CN2CCN(c3cnccn3)CC2)CC1` [Compound No. 65, 1-[4-(Aminomethyl)-4-(3-chlorophenyl)-1-piperidyl]-2-[4-(2-pyrazinyl)-1-piperazinyl]-1-ethanone] displayed a melting point of 138 to 139 °C.

`CN(C)CC1(c2cccc(C(F)(F)F)c2)CCN(C(=O)CN2CCN(c3cnccn3)CC2)CC1` [Compound No. 33, 1-[4-[(Dimethylamino)methyl]-4-[3-(trifluoromethyl)phenyl]-1-piperidyl]-2-[4-(2-pyrazinyl)-1-piperazinyl]-1-ethanone] displayed a melting point of 118 °C.

As for `O=C(CN1CCN(c2cnccn2)CC1)N1CCC(CO)(c2cccc(C(F)(F)F)c2)CC1` [Compound No. 32, 1-[4-(Hydroxymethyl)-4-[3-(trifluoromethyl)phenyl]-1-piperidyl]-2-[4-(2-pyrazinyl)-1-piperazinyl]-1-ethanone], the melting point was determined as 223 °C.

`CNCC1(c2cccc(C(F)(F)F)c2)CCN(C(=O)CN2CCN(c3cnccn3)CC2)CC1` [Compound No. 57, 1-[4-[(Methylamino)methyl]-4-[3-(trifluoromethyl)phenyl]-1-piperidyl]-2-[4-(2-pyrazinyl)-1-piperazinyl]-1-ethanone] yielded a melting point of 137 to 139 °C.

As to `O=C(CN1CCN(c2ccncn2)CC1)N1CC=C(c2cccc(C(F)(F)F)c2)CC1` (as salt: oxalate) [Compound No. 27, 2-[4-(4-Pyrimidinyl)-1-piperazinyl]-1-[4-[3-(trifluoromethyl)phenyl]-3,6-dihydro-1(2H)-pyridyl]-1-ethanone dioxalate], the melting point is 160 °C.
